Measured values published in patent US20210284618A1, “FURANOCHALCONES AS INHIBITORS OF CYP1A1, CYP1A2 AND CYP1B1 FOR CANCER CHEMOPREVENTION” (Council of Scientific & Industrial Research, priority 2016, published 2021).

Biological target: T1, CYP1A1 (Homo sapiens, UniProt P04798)
T1 construct: host or cells: yeast microsomes (Saccharosomes)
T1 sequence (P04798 1-512): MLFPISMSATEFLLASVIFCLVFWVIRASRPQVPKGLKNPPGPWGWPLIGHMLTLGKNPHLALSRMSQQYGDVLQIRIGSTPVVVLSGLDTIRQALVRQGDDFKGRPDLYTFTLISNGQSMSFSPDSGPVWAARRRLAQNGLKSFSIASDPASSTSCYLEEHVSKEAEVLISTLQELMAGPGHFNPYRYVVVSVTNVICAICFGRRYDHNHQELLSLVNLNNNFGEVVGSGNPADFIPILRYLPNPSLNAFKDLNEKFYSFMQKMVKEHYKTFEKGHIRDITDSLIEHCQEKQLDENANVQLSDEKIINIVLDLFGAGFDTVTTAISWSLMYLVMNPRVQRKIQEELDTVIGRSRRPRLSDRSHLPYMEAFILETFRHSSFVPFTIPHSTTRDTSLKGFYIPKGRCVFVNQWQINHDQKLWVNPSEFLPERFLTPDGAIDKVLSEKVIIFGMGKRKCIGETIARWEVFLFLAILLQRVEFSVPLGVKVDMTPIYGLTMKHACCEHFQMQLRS
Assay: CYP1A1 inhibition in HEK293 cells transfected with pcDNA3.1/CYP1A1 (live cells)
Type: cell-based
Experimental: Example 26. In-vitro CYP450 inhibition in HEK293 cells transfected with pcDNA3.1/CYP1A1 against 5 μM EROD. […] The HEK293 cells used here was procured from ‘European Collection of Authenticated Cell Cultures’ (catalog number. ECACC 85120602).

## COc1c(C(=O)/C=C/c2cccnc2)c(O)c(OC)c2occc12 [Compound 8, 3-(4,7-dimethoxy-6-hydroxybenzofuran-5-yl)-1-(pyridin-3-yl)-3-oxopropene]
  IC50: 470 nM
10 μM, 5 μM EROD
  % inhibition of CYP1A1 in HEK293 cells at 10 μM: 99.2%
human, HEK293 cells transfected with pcDNA3.1/CYP1A1 (live cells), probe EROD (5 μM), % inhibition of CYP1A1 in HEK293 cells at 10 μM, 10 μM, 5 μM EROD
  inhibition at 10 μM: > 80%
